Format in all cases: cell-based
Assay [1] deals with T1, human TLR7 (Homo sapiens, UniProt Q9NYK1).
T1 sequence (Q9NYK1 27-1049): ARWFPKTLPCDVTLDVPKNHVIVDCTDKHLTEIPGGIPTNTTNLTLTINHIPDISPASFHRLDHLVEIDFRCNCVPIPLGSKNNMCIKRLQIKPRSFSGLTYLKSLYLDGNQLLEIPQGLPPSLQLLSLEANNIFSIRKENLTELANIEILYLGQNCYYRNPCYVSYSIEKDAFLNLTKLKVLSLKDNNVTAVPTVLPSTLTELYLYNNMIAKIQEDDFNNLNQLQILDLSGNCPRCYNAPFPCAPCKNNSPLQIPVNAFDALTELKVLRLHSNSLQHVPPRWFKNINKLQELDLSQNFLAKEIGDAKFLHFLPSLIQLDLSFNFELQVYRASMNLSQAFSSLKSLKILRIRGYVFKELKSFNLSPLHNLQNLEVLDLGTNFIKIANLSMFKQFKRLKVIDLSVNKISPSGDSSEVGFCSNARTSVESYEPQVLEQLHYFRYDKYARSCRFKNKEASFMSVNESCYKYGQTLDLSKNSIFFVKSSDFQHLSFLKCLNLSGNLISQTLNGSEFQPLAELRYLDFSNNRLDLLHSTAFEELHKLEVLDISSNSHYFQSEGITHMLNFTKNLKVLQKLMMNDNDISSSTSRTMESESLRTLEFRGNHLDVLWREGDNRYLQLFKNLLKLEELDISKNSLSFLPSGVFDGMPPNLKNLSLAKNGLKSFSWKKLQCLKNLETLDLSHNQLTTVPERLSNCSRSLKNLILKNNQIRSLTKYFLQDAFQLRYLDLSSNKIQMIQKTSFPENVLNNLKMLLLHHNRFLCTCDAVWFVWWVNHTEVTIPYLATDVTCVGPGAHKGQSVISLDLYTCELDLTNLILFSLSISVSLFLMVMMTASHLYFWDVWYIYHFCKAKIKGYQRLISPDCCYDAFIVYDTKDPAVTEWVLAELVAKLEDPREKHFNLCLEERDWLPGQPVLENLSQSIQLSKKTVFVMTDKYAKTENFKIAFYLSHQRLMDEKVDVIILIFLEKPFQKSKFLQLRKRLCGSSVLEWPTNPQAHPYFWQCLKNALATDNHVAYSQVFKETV
The experiment in a line: TLR7 inhibition reporter assay (HEK-Blue cells, SEAP reporter). The note with it: HEK-Blue cells overexpressing human TLR7; stimulated with gardiquimod 7.5 μM; 22 hour incubation; SEAP readout. In short, it runs like this: (§1)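 HEK-Blue cells with NF-κB/AP-1-driven SEAP pre-treated 30 min with compound (0.05 nM–50 μM), then stimulated with gardiquimod 7.5 μM (TLR7), R848 15.9 μM (TLR8) or ODN2006 5 nM (TLR9). SEAP detected after 22 h at 37 °C; percent inhibition relative to agonist-plus-DMSO and known-inhibitor wells.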

In assay [2] the target is T2, human TLR8 (Homo sapiens, UniProt Q9NR97).
T2 sequence (Q9NR97 27-1041): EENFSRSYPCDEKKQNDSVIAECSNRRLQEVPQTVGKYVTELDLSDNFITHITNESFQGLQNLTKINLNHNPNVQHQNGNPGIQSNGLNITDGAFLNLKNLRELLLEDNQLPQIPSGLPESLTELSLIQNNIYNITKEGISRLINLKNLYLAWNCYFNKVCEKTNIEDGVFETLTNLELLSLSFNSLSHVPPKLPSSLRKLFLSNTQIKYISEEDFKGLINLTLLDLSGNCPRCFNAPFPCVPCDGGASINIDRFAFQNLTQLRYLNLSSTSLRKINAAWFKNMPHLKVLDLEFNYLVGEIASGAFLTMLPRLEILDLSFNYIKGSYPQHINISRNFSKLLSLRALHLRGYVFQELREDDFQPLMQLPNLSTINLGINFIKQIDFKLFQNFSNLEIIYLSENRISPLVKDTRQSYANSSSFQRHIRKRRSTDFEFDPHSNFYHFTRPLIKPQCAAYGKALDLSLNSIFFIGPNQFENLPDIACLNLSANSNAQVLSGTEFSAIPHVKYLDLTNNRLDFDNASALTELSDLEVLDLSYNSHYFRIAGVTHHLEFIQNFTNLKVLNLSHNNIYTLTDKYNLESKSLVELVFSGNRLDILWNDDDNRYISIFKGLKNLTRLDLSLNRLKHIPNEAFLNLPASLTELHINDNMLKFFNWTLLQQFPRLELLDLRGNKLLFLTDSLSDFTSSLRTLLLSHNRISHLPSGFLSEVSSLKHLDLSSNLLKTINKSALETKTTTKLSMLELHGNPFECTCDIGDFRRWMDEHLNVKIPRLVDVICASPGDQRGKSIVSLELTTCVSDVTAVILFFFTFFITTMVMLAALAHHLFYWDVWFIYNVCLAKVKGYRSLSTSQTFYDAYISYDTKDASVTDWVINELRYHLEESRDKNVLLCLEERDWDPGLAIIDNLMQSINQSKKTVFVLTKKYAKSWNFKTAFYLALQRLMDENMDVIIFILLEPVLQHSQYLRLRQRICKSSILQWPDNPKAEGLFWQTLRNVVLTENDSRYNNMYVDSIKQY
As to the kind of experiment: TLR8 inhibition reporter assay (HEK-Blue cells, SEAP reporter). The note with it: HEK-Blue cells overexpressing human TLR8; stimulated with R848 15.9 μM; 22 hour incubation; SEAP readout. As for the experimental part:
TLR7/8/9 Inhibition Reporter Assays
HEK-Blue™-cells (Invivogen) overexpressing human TLR7, TLR8 or TLR9 receptors were used for screening inhibitors of these receptors using an inducible SEAP (secreted embryonic alkaline phosphatase) reporter gene under the control of the […] minimal promoter fused to five NF-κB and AP-1-binding sites. Briefly, cells are seeded into Greiner 384 well plates (15000 cells per well for TLR7, 20,000 for TLR8 and 25,000 for TLR9) and then treated with test compounds in DMSO to yield a final dose response concentration range of 0.05 nM-50 μM. After a 30 minute compound pre-treatment at room temperature, the cells are then stimulated with a TLR7 ligand (gardiquimod at a final concentration of 7.5 μM), TLR8 ligand (R848 at a final concentration of 15.9 μM) or TLR9 ligand (ODN2006 at a final concentration of 5 nM) to activate NF-κB and AP-1 which induce the production of SEAP. After a 22 hour incubation at 37° C., 5% CO2, SEAP levels are determined with the addition of HEK-Blue™ Detection reagent (Invivogen), a cell culture medium that allows for detection of SEAP, according to manufacturer's specifications. The percent inhibition is determined as the % reduction in the HEK-Blue signal present in wells treated with agonist plus DMSO alone compared to wells treated with a known inhibitor.

Assay [3] has as its target T3, human TLR9 (Homo sapiens, UniProt Q9NR96).
T3 sequence (Q9NR96 26-1032): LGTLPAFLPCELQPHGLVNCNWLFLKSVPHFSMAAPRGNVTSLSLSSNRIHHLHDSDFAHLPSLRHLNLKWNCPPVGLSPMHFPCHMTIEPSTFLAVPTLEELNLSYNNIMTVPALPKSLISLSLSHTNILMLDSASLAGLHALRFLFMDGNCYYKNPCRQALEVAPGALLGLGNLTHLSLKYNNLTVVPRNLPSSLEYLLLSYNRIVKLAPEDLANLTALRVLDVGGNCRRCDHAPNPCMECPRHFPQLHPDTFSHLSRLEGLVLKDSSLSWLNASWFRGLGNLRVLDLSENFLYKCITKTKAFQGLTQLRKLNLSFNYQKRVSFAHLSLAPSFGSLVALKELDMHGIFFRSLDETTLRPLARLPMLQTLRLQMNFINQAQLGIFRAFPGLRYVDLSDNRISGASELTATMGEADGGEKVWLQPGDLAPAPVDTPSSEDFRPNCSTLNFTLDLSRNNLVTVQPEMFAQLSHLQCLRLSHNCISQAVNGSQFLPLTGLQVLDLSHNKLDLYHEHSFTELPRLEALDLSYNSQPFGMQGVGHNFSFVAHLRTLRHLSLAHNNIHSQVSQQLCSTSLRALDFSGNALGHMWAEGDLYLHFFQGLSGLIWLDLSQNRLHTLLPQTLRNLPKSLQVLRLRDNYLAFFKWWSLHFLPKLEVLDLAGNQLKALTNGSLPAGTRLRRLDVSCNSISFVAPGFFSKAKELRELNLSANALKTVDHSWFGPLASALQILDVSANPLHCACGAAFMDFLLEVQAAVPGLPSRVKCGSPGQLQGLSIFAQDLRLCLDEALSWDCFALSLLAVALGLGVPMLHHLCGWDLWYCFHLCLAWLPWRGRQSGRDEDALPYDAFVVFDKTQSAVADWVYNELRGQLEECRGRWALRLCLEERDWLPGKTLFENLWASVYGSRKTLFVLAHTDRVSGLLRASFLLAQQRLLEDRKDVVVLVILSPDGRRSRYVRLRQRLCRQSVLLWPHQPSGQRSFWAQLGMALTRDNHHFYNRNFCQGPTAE
The experiment in a line: TLR9 inhibition reporter assay (HEK-Blue cells, SEAP reporter). As to conditions: HEK-Blue cells overexpressing human TLR9; stimulated with ODN2006 5 nM; 22 hour incubation; SEAP readout. An outline of the steps: as §1
(In general: In a reporter assay the amount or activity of a reporter protein is the signal.)

Among the data in US12486267B2, “Imidazo[1,2-A]pyridine and [1,2,4]triazolo[1,5-A]pyridine derivatives as TLR9 inhibitors for the treatment of fibrosis” (BRISTOL-MYERS SQUIBB COMPANY, priority 2020, dated 2025) are IC50 values, retold here.

A value given as a limit tells only on which side of the number the result lay.

Turning to `Cc1cc(C2CC3CCC(C2)N3C2CCN(C(C)C)CC2)cn2nc(-c3ccc(S(C)(=O)=O)cc3)nc12` (stereo not drawn) [Example 160, 6-(8-(1-isopropylpiperidin-4-yl)-8-azabicyclo[3.2.1]octan-3-yl)-8-methyl-2-(4-(methylsulfonyl)phenyl)-[1,2,4]triazolo[1,5-a]pyridine], the concentration for half-maximal inhibition (IC50) in assay [1] is 6.9 µM; in assay [2], more than 50 µM; in assay [3], 0.044 µM.

On to `COc1ccc(-c2cn3c(n2)CCC(C2CCN(C4CC5(C4)CN(CC(C)C)C5)CC2)C3)cc1OC` (single isomer, unassigned) [Example 54, 2-(3,4-dimethoxyphenyl)-6-(1-(2-isobutyl-2-azaspiro[3.3]heptan-6-yl)piperidin-4-yl)-5,6,7,8-tetrahydroimidazo[1,2-a]pyridine], for which the 50% inhibitory concentration (IC50) was 0.83 µM in assay [1], more than 50 µM in assay [2] and 0.0015 µM in assay [3].

Regarding `COc1ccc(-c2nc3n(n2)CC(c2ccc(N4CC5CCC(C4)N5C(C)C)cc2)CC3C)cc1OC` (stereo not drawn) [Example 152, 2-(3,4-dimethoxyphenyl)-6-(4-(8-isopropyl-3,8-diazabicyclo[3.2.1]octan-3-yl)phenyl)-8-methyl-5,6,7,8-tetrahydro-[1,2,4]triazolo[1,5-a]pyridine], the IC50 in assay [1] was more than 50 µM; in assay [2] it was more than 50 µM; in assay [3], 0.357 µM.

For `COc1ccc(-c2cn3c(n2)CC(C2CCN(C4CCN(C(C)C)CC4)CC2)CC3)cc1OC` (racemic) [Example 58, 2-(3,4-dimethoxyphenyl)-7-(1′-isopropyl-[1,4′-bipiperidin]-4-yl)-5,6,7,8-tetrahydroimidazo[1,2-a]pyridine], the values for the IC50 in assay [1], in assay [2] and in assay [3] were 13 µM, 15 µM and 0.06 µM, respectively.

On to `COc1ccc(-c2cn3c(n2)CC[C@H](C2CCN(C4CC5CCC(C4)N5C(C)C)CC2)C3)cc1OC` (single isomer, unassigned) [Example 135], for which the results for the IC50 in assay [1], in assay [2] and in assay [3] were 3.9 µM, more than 25 µM and 0.042 µM, respectively.

In the case of `COc1ccc(-c2cn3cc(C4CCN(C5CC6(C5)CN(C(C)C)C6)CC4)cc(C)c3n2)cc1OC` [Example 13, 2-(3,4-dimethoxyphenyl)-6-(1-(2-isopropyl-2-azaspiro[3.3]heptan-6-yl)piperidin-4-yl)-8-methylimidazo[1,2-a]pyridine], the half-maximal inhibitory concentration (IC50) in assay [1] was 47 µM; in assay [2] it was more than 50 µM; in assay [3] it was 0.163 µM.

For the molecule `Cc1cc(-c2ccc(N3CCN(C4CCC4)CC3)cc2)cn2cc(-c3ccc(S(C)(=O)=O)cc3)nc12` [Example 102, 6-(4-(4-cyclobutylpiperazin-1-yl)phenyl)-8-methyl-2-(4-(methylsulfonyl)phenyl) imidazo[1,2-a]pyridine], the results for the IC50 in assay [1], in assay [2] and in assay [3] were 6.3 µM, 17 µM and 0.71 µM, respectively.

Consider `COc1ccc(-c2cn3cc(-c4ccc(N5CCN(C(C)C)CC5)cc4)cc(C)c3n2)cc1OC` [Example 96, 2-(3,4-dimethoxyphenyl)-6-(4-(4-isopropylpiperazin-1-yl)phenyl)-8-methylimidazo[1,2-a]pyridine], for which the IC50 is 2.1 µM in assay [1], 15 µM in assay [2] and 0.232 µM in assay [3].

For the molecule `CS(=O)(=O)c1ccc(-c2cn3cc(C4CCN(C5CCN(CC6CC6)CC5)CC4)cc(F)c3n2)cc1` [Example 109, 6-(1′-(cyclopropylmethyl)-[1,4′-bipiperidin]-4-yl)-8-fluoro-2-(4-(methylsulfonyl)phenyl)imidazo[1,2-a]pyridine], the IC50 in assay [1] is 1.3 µM; in assay [2], more than 50 µM; in assay [3], 0.0043 µM.

With `Cc1cc(-c2ccc(N3CCN(CC4CCC4)CC3)cc2)cn2cc(-c3ccc(S(C)(=O)=O)cc3)nc12` [Example 101, 6-(4-(4-(cyclobutylmethyl)piperazin-1-yl)phenyl)-8-methyl-2-(4-(methylsulfonyl)phenyl)imidazo[1,2-a]pyridine], the IC50 turned out to be 18.4 µM in assay [1], 14 µM in assay [2] and 0.803 µM in assay [3].

A word on the IC50: it is the point on the concentration scale where inhibition reaches its midpoint. Read a low IC50 as inhibition by little substance.
